Reference: US7998682B2, “Method for assessing atherosclerosis by measuring expression of FOS or DUSP1 in monocytes” (The United States of America as represented by the …, priority 2004, dated 2011)

Legend:
[1] = tested on: DUSP1; assay: RT-PCR of DUSP1 in human monocytic cell lines stimulated with PMA; assay type: cell-based; settings: five human monocytic cell lines, 20 nM PMA
[2] = tested on: FOS; assay: RT-PCR of FOS in human monocytic cell lines stimulated with PMA; assay type: cell-based; settings: five human monocytic cell lines, 20 nM PMA
Description: FIGS. 2A-2D are digital images and graphs showing expression of FOS in human carotid plaque macrophages and in activated human monocytic cells and ApoE KO mouse splenocytes. FIG. 2A is a digital image of fresh frozen sections of human carotid artery plaques stained with hematoxylin and eosin (H&E), negative control immunoglobulin (Control Ig) and antibodies against CD14 or FOS. CD14+ staining of macrophages colocalizes with FOS immunoreactivity (25× magnification). Note that the CD14 staining gives a more diffuse appearance consistent with cell surface plasma membrance staining while the FOS pattern is more punctate consistent with nuclear localization. For the digital image shown as FIG. 2B, from four patients, the corresponding mononuclear cell (MNC), circulating monocyte (Mono) and carotid plaque purified macrophage (Mac) preparations were used for quantitative RT-PCR. The normalized expression levels shown were obtained as described in FIG. 1A. Note the progressively higher pattern of candidate gene expression associated with increasing concentration of monocytes and activation into macrophages. […] Values expressed as mean±SE, P=0.04. […]
Quantitative real-time RT-PCR: mRNA from lystates (10^5 cells) were purified by binding to poly(dT) magnetic beads (Dynal Biotech Inc. Brown Deer, Wis.) and reverse transcribed using Superscript II (Invitrogen, Carlsbad, Calif.). […]

[3] = tested on: FOS protein; assay: FOS protein level by Western blot in PMA-stimulated THP1 cells; assay type: cell-based, human; settings: 1 mM mevalonate added with simvastatin, 20 hours before PMA
[4] = tested on: THP1 cells; assay: Monocyte adhesion of PMA-stimulated THP1 cells to plastic substratum; assay type: cell-based, human
Method: (§1) FIGS. 3A-3B are digital images and graphs showing the functional effects of statin and FOS siRNA inhibition on monocyte activation by PMA. FIG. 3A is a bar graph and a digital image wherein THP1 cells were pretreated with simvastatin and/or mevalonate for 20 hours prior to stimulation with 2 nM PMA. Cell adhesion was determined 4 hours after PMA stimulation; cumulative MCP-1 release into medium was assayed 24 hours after PMA stimulation. […] P values for the difference in cell adhesion and MCP-1 release after statin treatment were 0.004 and 0.04, respectively. FIG. 3B is a bar graph and a digital image wherein THP1 cells were stimulated with 2 nM PMA 30 minutes after siRNA transfection for 4 hours. Control (−) cells were mock transfected without siRNA as a transfection control. […]
(§2) Monocyte function: For pretreatment experiments, cells were incubated with 10 μM simvastatin and/or 1 mM mevalonate for 20 hours prior to stimulation with phorbol 12-myristate 13-acetate (PMA, Sigma, St. Louis, Mo.). Cell adhesion was determined by gently washing off the nonadherent cells twice and pooling them. […] Viable nonadherent and adherent cells were counted using Trypan Blue dye. Cumulative MCP-1 release into the medium was determined using the MCP-1 immunoassay kit (R& D Systems, Minneapolis, Minn.) after 24 hours PMA stimulation.

[5] = tested on: MCP-1; assay: Cumulative MCP-1 release into medium by PMA-stimulated THP1 cells (immunoassay); assay type: cell-based, human
Method: as §1, §2

[6] = 1 mM mevalonate in medium with simvastatin, 20 hours before PMA

Structure (SMILES): CCCCCCCCCCCCCC(=O)O[C@@H]1[C@@H](C)[C@@]2(O)[C@@H](C=C(CO)C[C@]3(O)C(=O)C(C)=C[C@@H]23)[C@@H]2C(C)(C)[C@]12OC(C)=O [PMA, phorbol 12-myristate 13-acetate]
- DUSP1 expression after PMA stimulation [1]: repressed in two of the cell lines
- FOS expression after PMA stimulation [2]: uniformly induced in all five cell lines

Structure (SMILES): CC(O)(CCO)CC(=O)O (stereo not shown) [mevalonate]
- effect on statin-induced reduction in FOS protein [3]: reversed
- effect on statin-induced reduction in monocyte adhesion [4, 6]: specifically reversed
- effect on statin-induced reduction in MCP-1 release [5, 6]: specifically reversed

Structure (SMILES): CCC(C)(C)C(=O)O[C@H]1C[C@@H](C)C=C2C=C[C@H](C)[C@H](CC[C@@H]3C[C@@H](O)CC(=O)O3)[C@H]21 [statins, simvastatin]
- reduction in monocyte adhesion to plastic substratum compared to control ([4]; 10 μM simvastatin pretreatment 20 hours, 2 nM PMA, 4 hours after PMA, P=0.004): approximately 70%
- reduction in MCP-1 release into medium compared to control ([5]; 10 μM simvastatin pretreatment 20 hours, 2 nM PMA, 24 hours after PMA, P=0.04): approximately 70%
